Data from US9770026B2, “Substituted pyrimidine compound and uses thereof” (Shenyang Sinochem Agrochemicals R&D Co., Ltd., priority 2012, dated 2017).

Tests used:
cucumber downy mildew = assay: protectant activity in vivo against cucumber downy mildew; settings: for control effect against cucumber downy mildew (%): protectant activity
carmine spider mite = assay: bioactivity test against carmine spider mite, airbrush spray; format: in vivo; settings: for Insecticidal activity against carmine spider mite (% ): contrastive test; for control against carmine spider mite: mortality after 72 hrs
In short: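 Broadbean seedlings infested with adult mites were sprayed with compound (acetone/methanol stock diluted in 0.1% Tween 80 water) by airbrush at 0.7 kg/cm^2, 0.5 ml. Three replicates were run. Mortality was scored after 72 hrs.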

Diamond back moth = assay: insecticidal activity against diamond back moth, airbrush spray; format: in vivo; settings: for control (test results against diamond back moth): mortality after 72 hrs
In short: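 Airbrush leaf-disc spray test: both faces of 2 cm cabbage discs received 0.5 ml of test solution at 0.7 kg/cm^2. Solutions were made in acetone:methanol (1:1) and brought to concentration with 0.1% Tween 80 in water. Ten second-instar larvae per disc, triplicates, were held at 25° C and 60˜70% R.H., with mortality recorded at 72 hrs.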

corn rust = assay: protectant activity in vivo against corn rust; settings: 400 ppm
armyworm = assay: bioactivity test against armyworm, airbrush spray; format: in vivo; settings: 600 ppm, mortality after 72 h
wheat powdery mildew = assay: protectant activity in vivo against wheat powdery mildew; settings: 400 ppm
[1] = system: Green peach aphids (Myzus Persicae Sulzer); assay: bioactivity test against green peach aphid, airbrush foliar spray; format: in vivo; settings: for control (test results against green peach aphid): death rate after 48 hrs; for Insecticidal activity against peach aphid (%): contrastive test
In short: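 Aphids (15-30 per cabbage leaf disc) on moist filter paper were airbrush-sprayed at 10 psi, 0.5 mL, with compound from acetone:methanol (1:1) diluted in water with 0.1% tween 80. Held at 25±1 C, 60±5% RH; survivors counted after 48 hrs to give death rates.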

Row | Structure (SMILES) | control effect against cucumber downy mildew (%) (cucumber downy mildew; 6.25 mg/L) | control effect against cucumber downy mildew (%) (cucumber downy mildew; 12.5 mg/L) | control effect against cucumber downy mildew (%) (cucumber downy mildew; 25 mg/L) | control effect against cucumber downy mildew (%) (cucumber downy mildew; 50 mg/L) | control effect against cucumber downy mildew (%) (cucumber downy mildew; 100 mg/L) | control effect against cucumber downy mildew (%) (cucumber downy mildew; 400 mg/L) | protectant activity against cucumber downy mildew in vivo (cucumber downy mildew; 25 ppm) [%] | protectant activity against cucumber downy mildew in vivo (cucumber downy mildew; 50 ppm) [%] | protectant activity against cucumber downy mildew in vivo (cucumber downy mildew; 100 ppm) [%] | protectant activity against cucumber downy mildew in vivo (cucumber downy mildew; 400 ppm) [%] | Insecticidal activity against carmine spider mite (% ) (carmine spider mite; 100 mg/L) [%] | Insecticidal activity against carmine spider mite (% ) (carmine spider mite; 600 mg/L) [%] | control against carmine spider mite (carmine spider mite; 100 ppm) [%] | control against carmine spider mite (carmine spider mite; 600 ppm) [%] | control (test results against diamond back moth) (Diamond back moth; 600 ppm) [%] | protectant activity against corn rust in vivo (corn rust) [%] | control (test results against armyworm) (armyworm) [%] | protectant activity against wheat powdery mildew in vivo (wheat powdery mildew) [%] | control (test results against green peach aphid) ([1]; 100 ppm) [%] | control (test results against green peach aphid) ([1]; 600 ppm) [%] | further results
1 | Cc1ccc(Oc2ccc(CCNc3ncnc(C)c3Cl)cn2)cc1 [III-16] | 100 | 100 | 100 | 100 | 100 | 100 | 100 | 100 | 100 | 100 | 100 | 100 | 100 | 100 | 100 | 100 | 100 | 100 | 100 | 100 | protectant activity against cucumber downy mildew in vivo (cucumber downy mildew; 6.25 ppm): 100%; protectant activity against cucumber downy mildew in vivo (cucumber downy mildew; 12.5 ppm): 100%
2 | COc1ccc(Oc2ccc(CCNc3ncnc(C)c3Cl)cn2)cc1 [III-19] | 95 | 98 | 100 | 100 | 100 | 100 | 100 | 100 | 100 | 100 | – | – | – | 100 | 100 | 100 | 100 | 100 | – | 100 | –
3 | CCc1ncnc(NCCc2ccc(Oc3ccccc3)nc2)c1Cl [III-181] | – | – | 100 | 100 | 100 | 100 | 100 | 100 | 100 | 100 | 100 | 100 | 100 | 100 | 100 | 100 | 100 | 100 | 100 | 100 | Insecticidal activity against peach aphid (%) ([1]; 10 mg/L): 100%; Insecticidal activity against peach aphid (%) ([1]; 100 mg/L): 100%; Insecticidal activity against peach aphid (%) ([1]; 600 mg/L): 100%; control (test results against green peach aphid) ([1]; 10 ppm): 100%
4 | CCc1ncnc(NCCc2ccc(Oc3ccc(C)cc3)nc2)c1Cl [III-196] | 85 | 85 | 100 | 100 | 100 | 100 | 100 | 100 | 100 | 100 | – | – | – | 100 | 100 | 100 | 100 | 100 | 100 | 100 | Insecticidal activity against diamond back moth (%) (Diamond back moth; 100 mg/L): 100%; Insecticidal activity against diamond back moth (%) (Diamond back moth; 600 mg/L): 100%; control (test results against diamond back moth) (Diamond back moth; 100 ppm): 100%
